What all share (test): NCI tumour cell line growth inhibition, 48 h
Assay [1] relates to 786-0.
Assay [2] has as its system BT-549.
Assay [3] deals with CCRF-CEM.
Assay [4] has as its system DU-145.
The test system of assay [5] is HL-60.
For assay [6], the system named is HOP-92.
Assay [7] has as its system Hs-578T.
Assay [8] has as its system IGROV-1.
The subject of assay [9] is K562.
The test system of assay [10] is KM12.
Assay [11] deals with MDA-MB-231.
Assay [12] has as its system MDA-N.
Assay [13] deals with MOLT-4.
Assay [14] deals with NCI-H522.
In assay [15] the test system is NCI/ADR-RES.
Assay [16] concerns OVCAR-5.
The test system of assay [17] is SF-268.
Assay [18] relates to SK-MEL-28.
The test system of assay [19] is SK-MEL-5.
The subject of assay [20] is SW-620.

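Exposure lasted 48 hours, with cells grown in 96-well plates and compounds tested at five concentrations. Here, GI50 denotes the concentration required for 50% inhibition of growth.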 Calls of active or inactive are those of the source. Cut-off read from the data, not from the text of the source: active = GI50 up to about 1.1 µM and inactive = higher.

In the case of `Cc1ccc(-c2cn3c(nc4ccccc43)c(-c3ccccc3)n2)cc1`, the GI50 was 15.1 µM (inactive) in assay [1]; 32.5 µM (inactive) in assay [2]; > 100 µM (inactive) in assay [3]; > 100 µM (inactive) in [4]; > 100 µM (inactive) in [5]; 20.7 µM (inactive) in assay [6]. Also, the GI50 is 15.3 µM (inactive) in [7]; 37.9 µM (inactive) in [8]; > 100 µM (inactive) in assay [9]; > 100 µM (inactive) in assay [10]; > 100 µM (inactive) in assay [11]; > 100 µM (inactive) in assay [12]. For the same compound, the GI50 in assay [13] was > 100 µM (inactive); in assay [14] it was 20.5 µM (inactive); in assay [15] it was 47.9 µM (inactive); in assay [16], > 100 µM (inactive); in assay [17], > 45.3 µM (inactive); in assay [18], > 100 µM (inactive). Moreover, the GI50 in assay [19] and in assay [20] was > 100 µM (inactive) throughout.

As to `CC1=C/C(=C(/c2ccc(O)c(C)c2)c2ccccc2C(=O)O)C=CC1=O`, the GI50 was 19 µM (inactive) in assay [1]; 21.1 µM (inactive) in assay [2]; 21.8 µM (inactive) in assay [3]; 18.1 µM (inactive) in assay [4]; 20.8 µM (inactive) in assay [5]; 20.3 µM (inactive) in assay [6]. Further, the GI50 in assay [7] was 25.4 µM (inactive); in assay [8] it was 18.1 µM (inactive); in assay [9] it was 21.3 µM (inactive); in assay [10], 19.3 µM (inactive); in assay [11] it was 19.9 µM (inactive); in assay [12] it was 18.7 µM (inactive). Besides, the GI50 is 21.9 µM (inactive) in [13]; 21.5 µM (inactive) in assay [14]; 31 µM (inactive) in assay [15]; 21.2 µM (inactive) in [16]; 25.2 µM (inactive) in [17]; 20.4 µM (inactive) in assay [18]. Moreover, the GI50 is 20.4 µM (inactive) in assay [19] and 19 µM (inactive) in assay [20].

As to `O=C1C(c2c(O)[nH]c3ccc(Br)cc23)=Nc2ccc(Br)cc21`, the GI50 in assay [1] is 24 µM (inactive); in assay [2], 70.6 µM (inactive); in assay [3], 63.5 µM (inactive); in assay [4], 25.4 µM (inactive); in [5], 86.5 µM (inactive); in assay [6], > 100 µM (inactive). For the same compound, the GI50 in assay [7] was 51.4 µM (inactive); in assay [8], 1.71 µM (inactive); in assay [9], 43.9 µM (inactive); in [10], 44.2 µM (inactive); in assay [11], 20 µM (inactive); in assay [12], 31.2 µM (inactive). In addition, the GI50 in assay [13] is 45 µM (inactive); in assay [14], 83 µM (inactive); in assay [15] it was 34 µM (inactive); in [16], > 100 µM (inactive); in assay [17] it was 33 µM (inactive); in [18] it was > 100 µM (inactive). Besides, the results for the GI50 in assay [19] and in assay [20] were > 100 µM (inactive) and 74.5 µM (inactive), respectively.

As to `CCCCC1C=Cn2c(=O)oc3c(OC(C)C)c(C)c(O)c1c32` (configuration not stated), the GI50 in assay [1] is 1.16 µM (inactive); in [2], 2.17 µM (inactive); in [3], 1.68 µM (inactive); in [4], 0.652 µM (active); in [5], 0.46 µM (active); in assay [6], 3.05 µM (inactive). Moreover, the GI50 in assay [7] was 0.684 µM (active); in assay [8] it was 1.88 µM (inactive); in assay [9] it was 0.91 µM (active); in assay [10], 1.49 µM (inactive); in assay [11] it was 1.87 µM (inactive); in assay [12], 2.37 µM (inactive). The GI50 in assay [13] is 0.824 µM (active); in assay [14], 1.24 µM (inactive); in assay [15], 0.993 µM (active); in assay [16], 4.78 µM (inactive); in assay [17] it was 0.796 µM (active); in assay [18] it was 1.19 µM (inactive). For the same compound, the GI50 is 2 µM (inactive) in assay [19] and 0.904 µM (active) in assay [20].

With `COc1cc(/C=C2\N=C(c3ccccc3)N(c3nc4ccc(Sc5ccccc5)cc4[nH]3)C2=O)cc(OC)c1OC`, the GI50 in assay [1] was 20.4 µM (inactive); in [2], 20.8 µM (inactive); in assay [3], 27.1 µM (inactive); in assay [4], 21.8 µM (inactive); in assay [5] it was 14.7 µM (inactive); in [6], 58.6 µM (inactive). Also, the GI50 in assay [7] is 30.8 µM (inactive); in assay [8] it was 45.4 µM (inactive); in assay [9] it was 13.2 µM (inactive); in assay [10], 17.6 µM (inactive); in assay [11] it was 20.6 µM (inactive); in [12], 4.76 µM (inactive). In addition, the GI50 in [13] is 26.8 µM (inactive); in [14] it was 18.1 µM (inactive); in assay [15], 20.4 µM (inactive); in [16] it was 33.7 µM (inactive); in assay [17], 26.2 µM (inactive); in [18], 24 µM (inactive). Besides, the GI50 in assay [19] is 13.2 µM (inactive); in assay [20], 25 µM (inactive).

For `O=C1C=CC(=O)c2c1ccc1c3ccccc3n(Cc3cccc([N+](=O)[O-])c3)c21`, the GI50 was 22.8 µM (inactive) in assay [1]; 40.1 µM (inactive) in assay [2]; 8.36 µM (inactive) in assay [3]; > 100 µM (inactive) in assay [4]; 6.9 µM (inactive) in assay [5]; 20.1 µM (inactive) in [6]. Besides, the GI50 in assay [7] is > 71.9 µM (inactive); in assay [8], 22.9 µM (inactive); in [9] it was 6.92 µM (inactive); in [10], > 100 µM (inactive); in assay [11] it was 24.2 µM (inactive); in [12], 16 µM (inactive). For the same compound, the GI50 is 8.65 µM (inactive) in assay [13]; 18.8 µM (inactive) in assay [14]; 37.8 µM (inactive) in assay [15]; > 100 µM (inactive) in [16]; 39.6 µM (inactive) in assay [17]; > 43.6 µM (inactive) in assay [18]. The values for the GI50 in assay [19] and in [20] were 53.3 µM (inactive) and 11.5 µM (inactive), respectively.

On to `CC(=O)c1cc2c(Br)cccc2oc1=O`, for which the GI50 in [1] was > 100 µM (inactive); in [2], 79.1 µM (inactive); in assay [3], > 100 µM (inactive); in assay [4], > 100 µM (inactive); in assay [5], > 100 µM (inactive); in assay [6], > 100 µM (inactive). Moreover, the GI50 is > 100 µM (inactive) in assay [7]; > 100 µM (inactive) in assay [8]; 99.1 µM (inactive) in assay [9]; > 100 µM (inactive) in assay [11]; 52 µM (inactive) in [12]; > 100 µM (inactive) in assay [13]. Besides, the GI50 in assay [14] is > 100 µM (inactive); in assay [15], > 100 µM (inactive); in assay [16], > 100 µM (inactive); in assay [17] it was 95.5 µM (inactive); in [18], > 100 µM (inactive); in assay [19], > 100 µM (inactive). Further, in [20], the GI50 was > 100 µM (inactive).

On to `O=C1CC(NC(=O)C(F)(F)F)c2c(Br)sc(N3CCC(c4ccccc4)CC3)c21` (configuration not stated), for which the GI50 in assay [1] was 20.8 µM (inactive); in assay [2], 27.7 µM (inactive); in assay [3], 4.05 µM (inactive); in assay [4], 22.2 µM (inactive); in assay [5], 9.44 µM (inactive); in assay [6], 3.87 µM (inactive). Also, the GI50 was 20 µM (inactive) in assay [7]; > 100 µM (inactive) in assay [8]; 5.27 µM (inactive) in assay [9]; > 100 µM (inactive) in [10]; 3.73 µM (inactive) in assay [11]; 78.9 µM (inactive) in assay [12]. The GI50 in [13] is 4.68 µM (inactive); in assay [14], 7.94 µM (inactive); in assay [15], 69 µM (inactive); in assay [16], > 100 µM (inactive); in assay [17] it was 43.4 µM (inactive); in [19], 6.03 µM (inactive). For the same compound, the GI50 in assay [20] was 43.4 µM (inactive).

In the case of `COC(=O)C(CC(C)C)NC(=O)C(NC(=O)c1ccc(-c2ccc(Cl)cc2Cl)o1)C(C)C` (configuration not stated), the GI50 in assay [1] is 16.1 µM (inactive); in assay [2] it was 30 µM (inactive); in [3], 12.2 µM (inactive); in assay [4], 21.8 µM (inactive); in [5], 6.56 µM (inactive); in assay [6], 14.2 µM (inactive). Moreover, the GI50 is 27.5 µM (inactive) in assay [7]; 18.7 µM (inactive) in [8]; 16 µM (inactive) in assay [9]; 20.8 µM (inactive) in [10]; 13.8 µM (inactive) in assay [11]; 20.2 µM (inactive) in [12]. Moreover, the GI50 was 12.9 µM (inactive) in assay [13]; 23.2 µM (inactive) in assay [14]; 18.7 µM (inactive) in assay [15]; 22.2 µM (inactive) in [16]; 22 µM (inactive) in assay [17]; 33.4 µM (inactive) in [18]. The results for the GI50 in assay [19] and in [20] were 20.3 µM (inactive) and 28.8 µM (inactive), respectively.

In the case of `N[C@@H]1CCN(c2c(F)cc3c(=O)c(C(=O)O)cn4c3c2Oc2cc3c(ccc5ccccc53)cc2-4)C1`, the GI50 was 1.55 µM (inactive) in [1]; 4.03 µM (inactive) in [2]; 0.0482 µM (active) in assay [3]; 3.28 µM (inactive) in assay [4]; 7.14 µM (inactive) in assay [5]; 2.72 µM (inactive) in assay [6]. The GI50 in [7] is 15.9 µM (inactive); in [8] it was 1.82 µM (inactive); in assay [9], 2.54 µM (inactive); in [10], 5.32 µM (inactive); in assay [11], 4.56 µM (inactive); in assay [12] it was 3.01 µM (inactive). Also, the GI50 in [13] is 0.515 µM (active); in assay [14], 3.85 µM (inactive); in [15] it was > 79.3 µM (inactive); in assay [16], 13.9 µM (inactive); in assay [18], > 21.1 µM (inactive); in assay [19] it was 2.92 µM (inactive). Moreover, the GI50 in assay [20] was 1.41 µM (inactive).
